± gives the expanded uncertainty stated by the source.
Conditions: DTA

Q: For `CCn1cc[n+](C)c1.NCC(=O)[O-]` [1-ethyl-3-methylimidazolium ammonioacetate], which Glass transition temperature is on record?
A: -62.0 ± 3 °C

From the NIST ThermoML archive (doi:10.1021/je700599z)
